Measurements reported in the supplement of paper PMC13380429.

Columns and labels:
Settings in all cases: 72 h
Vero E6 [1] = test: relative viability EC50 (midpoint between 100% and the lowest measured viability); higher = less toxic
U2OS [2] = test: as above
Calu-3 [3] = test: as above
Caco-2 [4] = test: as above
Vero E6 [5] = test: cell viability relative to DMSO; higher = less toxic
U2OS [6] = test: as above
Calu-3 [7] = test: as above
Caco-2 [8] = test: as above
Vero E6 [9] = test: drug sensitivity score (DSS) for viability; higher = more toxic; extreme values may be limits of the assay
U2OS [10] = test: as above
Calu-3 [11] = test: as above
Caco-2 [12] = test: as above
HepG2 [13] = test: relative viability EC50 (midpoint between 100% and the lowest measured viability); higher = less toxic
HepG2 [14] = test: cell viability relative to DMSO; higher = less toxic
HepG2 [15] = test: drug sensitivity score (DSS) for viability; higher = more toxic; extreme values may be limits of the assay

SMILES | relative viability EC50 (Vero E6 [1]) [µM] | relative viability EC50 (U2OS [2]) [µM] | relative viability EC50 (Calu-3 [3]) [µM] | relative viability EC50 (Caco-2 [4]) [µM] | cell viability (Vero E6 [5]; 1 nM) [%] | cell viability (Vero E6 [5]; 10 nM) [%] | cell viability (Vero E6 [5]; 100 nM) [%] | cell viability (Vero E6 [5]; 1000 nM) [%] | cell viability (Vero E6 [5]; 10000 nM) [%] | cell viability (U2OS [6]; 1 nM) [%] | cell viability (U2OS [6]; 10 nM) [%] | cell viability (U2OS [6]; 100 nM) [%] | cell viability (U2OS [6]; 1000 nM) [%] | cell viability (U2OS [6]; 10000 nM) [%] | cell viability (Calu-3 [7]; 1 nM) [%] | cell viability (Calu-3 [7]; 10 nM) [%] | cell viability (Calu-3 [7]; 100 nM) [%] | cell viability (Calu-3 [7]; 1000 nM) [%] | cell viability (Calu-3 [7]; 10000 nM) [%] | cell viability (Caco-2 [8]; 1 nM) [%] | cell viability (Caco-2 [8]; 10 nM) [%] | cell viability (Caco-2 [8]; 100 nM) [%] | cell viability (Caco-2 [8]; 1000 nM) [%] | cell viability (Caco-2 [8]; 10000 nM) [%] | drug sensitivity score (Vero E6 [9]) | drug sensitivity score (U2OS [10]) | drug sensitivity score (Calu-3 [11]) | drug sensitivity score (Caco-2 [12]) | relative viability EC50 (HepG2 [13]) [µM] | cell viability (HepG2 [14]; 1 nM) [%] | cell viability (HepG2 [14]; 10 nM) [%] | cell viability (HepG2 [14]; 100 nM) [%] | cell viability (HepG2 [14]; 1000 nM) [%] | cell viability (HepG2 [14]; 10000 nM) [%] | drug sensitivity score (HepG2 [15])
COc1cc(C[C@@H](CO)[C@H](CO)Cc2ccc(O)c(OC)c2)ccc1O [secoisolariciresinol-(-)] | > 10 | > 10 | > 10 | > 10 | 113 | 110 | 98.6 | 97.3 | 99.3 | 100 | 99.1 | 98.7 | 104 | 93.8 | 98.7 | 102 | 107 | 91.9 | 92.4 | 94.7 | 102 | 87.6 | 93 | 94.7 | 0 | 0 | 0 | 0 |  |  |  |  |  |  | 
OC[C@H]1O[C@@H](Oc2ccc(O)cc2)[C@H](O)[C@@H](O)[C@@H]1O [arbutin] | > 10 | > 10 |  | > 10 | 98.6 | 98 | 91.6 | 94.6 | 94.5 | 97.9 | 102 | 102 | 97.5 | 108 |  |  |  |  |  | 95.7 | 101 | 105 | 96 | 103 | 0 | 0 |  | 0 | > 10 | 99.2 | 109 | 98.6 | 105 | 103 | 0
O=C(N[C@H](Cc1ccccc1)C(=O)O)c1sc2cc(F)ccc2c1Cl [CU-CPT-4a] | > 10 | > 10 |  | > 10 | 107 | 103 | 102 | 99.1 | 104 | 97.2 | 97.1 | 94.4 | 98.2 | 96.7 |  |  |  |  |  | 99.3 | 102 | 91.1 | 93.5 | 102 | 0 | 0 |  | 0 | > 10 | 107 | 106 | 92.7 | 90.1 | 100 | 0
Cn1nnc(-c2ccc(-c3ccc(N4C[C@H](COP(=O)(O)O)OC4=O)cc3F)cn2)n1 [tedizolid-phosphate] | > 10 | > 10 | > 10 | > 10 | 98.5 | 101 | 97.9 | 89.3 | 89.8 | 98.8 | 98.5 | 97.1 | 93.8 | 93.4 | 102 | 103 | 114 | 86.1 | 97.6 | 108 | 97.8 | 94.2 | 87.3 | 87.9 | 0.2 | 0 | 0.9 | 0.8 |  | 106 | 96.9 | 91 | 71.7 | 53.1 | 6.1
CCc1c(C(=O)C(N)=O)c2c(OCC(=O)O)cccc2n1Cc1ccccc1 [varespladib] | > 10 |  | > 10 | > 10 | 104 | 102 | 107 | 103 | 99.5 |  |  |  |  |  | 104 | 99.2 | 91.2 | 110 | 101 | 106 | 90.1 | 94.4 | 93 | 106 | 0 |  | 0 | 0 | > 10 | 93.3 | 105 | 96.2 | 101 | 97.7 | 0
CCc1nc(-c2cccc(C)c2)c(-c2ccnc(NC(=O)c3ccccc3)c2)s1 [TAK-715] | > 10 | > 10 | > 10 |  | 93.5 | 102 | 94.8 | 90.6 | 82.2 | 100 | 103 | 98.3 | 93.6 | 85.5 | 90.5 | 101 | 91.8 | 93.7 | 78.2 | 97.5 | 102 | 92 | 78.1 | 65.6 | 0.8 | 0.4 | 1 | 4.3 |  | 93 | 94.6 | 94.6 | 94.6 | 73.5 | 1.8
COc1ccc(CN(CCN(C)C)c2ccccn2)cc1 [mepyramine] | > 10 | > 10 | > 10 |  | 95.7 | 93.1 | 95.1 | 98.5 | 102 | 98 | 99.8 | 103 | 101 | 95.9 | 101 | 113 | 112 | 106 | 93 |  |  |  |  |  | 0 | 0 | 0 |  | > 10 | 99.8 | 95.7 | 91 | 102 | 92.8 | 0
Cc1ccc(CCCO)c(NCc2ccc3nc(NCCCN4CCOCC4)n(Cc4nc(C)ccc4O)c3c2)c1 | > 10 | > 10 |  | > 10 | 99.6 | 92.7 | 97.7 | 102 | 102 | 98.1 | 97.1 | 97.6 | 96.5 | 95.1 | 115 | 96.4 | 104 | 93.6 | 74.8 | 101 | 97.7 | 97.6 | 101 | 90 | 0 | 0 | 1.9 | 0 | > 10 | 89.5 | 100 | 103 | 109 | 89.1 | 0
O=c1c2ccccc2[se]n1-c1ccccc1 [ebselen] | > 10 | > 10 | > 10 | > 10 | 96.4 | 98.5 | 99.4 | 97.6 | 104 | 97.4 | 98.7 | 105 | 97.4 | 102 | 107 | 93.5 | 91.3 | 87.6 | 111 | 88 | 102 | 107 | 88.5 | 100 | 0 | 0 | 0 | 0 |  |  |  |  |  |  | 
CN(C)C(=O)c1ccc(S(=O)(=O)c2ccc(NC(=O)[C@@](C)(O)C(F)(F)F)c(Cl)c2)cc1 [AZD7545] | > 10 | > 10 | > 10 | > 10 | 101 | 99 | 99.7 | 89 | 90.9 | 94.5 | 104 | 91.9 | 103 | 84.9 | 99.6 | 107 | 85.2 | 94 | 102 | 103 | 96.3 | 96.7 | 96.1 | 79.6 | 0.2 | 0.1 | 0 | 1.2 |  | 94.3 | 99.1 | 95 | 99.1 | 61 | 2
Cc1cc2cc3c(C)cc(=O)oc3c(C)c2o1 [trioxsalen] | > 10 | > 10 | > 10 | > 10 | 97.4 | 96 | 99.5 | 97.5 | 96.3 | 103 | 105 | 101 | 106 | 99.6 | 105 | 96.3 | 106 | 120 | 108 | 111 | 99.6 | 91.3 | 92.4 | 80.5 | 0 | 0 | 0 | 1 |  | 104 | 88.8 | 94.7 | 86.1 | 65.8 | 2.9
CN(C)CCOC(=O)C(c1ccccc1)C1(O)CCCC1 (stereo unspecified) [cyclopentolate] | > 10 | > 10 |  | > 10 | 99.1 | 103 | 102 | 101 | 107 | 100 | 96.5 | 98.4 | 97.9 | 98.5 |  |  |  |  |  | 96.9 | 97.6 | 93 | 100 | 102 | 0 | 0 |  | 0 | > 10 | 103 | 115 | 97.6 | 111 | 91.3 | 0
CC[C@H]1OC(=O)C[C@@H](O)[C@H](C)[C@@H](O[C@@H]2O[C@H](C)C[C@H](N(C)C)[C@H]2O)[C@@H](CC=O)C[C@@H](C)C(=O)/C=C/[C@]2(C)O[C@H]2[C@@H]1C [rosamicin] | > 10 | 3.09 | > 10 |  | 94.7 | 102 | 92.9 | 97 | 90.9 | 100 | 94.2 | 98.8 | 99.4 | 37.1 | 101 | 84.5 | 101 | 107 | 87.2 | 94.6 | 102 | 101 | 100 | 71.5 | 0 | 3.5 | 0 | 1.2 | 3.41 | 87 | 106 | 98.4 | 103 | 28.9 | 3.7
O=C(Cn1ccnc1[N+](=O)[O-])NCc1ccccc1 [benznidazole] | > 10 | > 10 |  | > 10 | 97.3 | 98.5 | 96.4 | 101 | 98.1 | 98 | 97.3 | 92.4 | 90 | 99.8 |  |  |  |  |  | 98 | 98.8 | 96.4 | 93.2 | 96 | 0 | 0 |  | 0 | > 10 | 97.3 | 95.9 | 93.7 | 94.4 | 94.2 | 0
O=Cc1ccc(CO)o1 [5-HMF] | > 10 | > 10 | > 10 |  | 103 | 99.9 | 99.7 | 105 | 97.3 | 99.6 | 99.8 | 104 | 102 | 106 | 96.6 | 98.2 | 97.3 | 94.5 | 104 |  |  |  |  |  | 0 | 0 | 0 |  |  |  |  |  |  |  | 
O=C(O[C@H]1C[N+]2(CCCOc3ccccc3)CCC1CC2)C(O)(c1cccs1)c1cccs1 [aclidinium] | > 10 | > 10 |  | > 10 | 103 | 95.5 | 101 | 96.6 | 98.7 | 98.4 | 95.9 | 97.1 | 97.2 | 99.1 |  |  |  |  |  | 105 | 87.8 | 99.6 | 94.3 | 104 | 0 | 0 |  | 0 | > 10 | 93.5 | 98.9 | 91.8 | 101 | 92.9 | 0
